According to publication PMC7955127, “Preclinical small molecule WEHI-7326 overcomes drug resistance and elicits response in patient-derived xenograft models of human treatment-refractory tumors” (Cell Death & Disease, 2021):

What was measured:
34931 HGSOC PDX = assay: HGSOC post-chemo PDX model 34931; type: in vivo, NSG mice; conditions: 34931 post-taxane, cisplatin-refractory PDX; 20 mg/kg i.v. twice a week, 6 weeks
Description: (§1) Two to three mm ovarian tumor fragments were subcutaneously engrafted in the left flank of NSG mice and monitored by physical palpation for tumor growth and engraftment. Engrafted tumors were measured twice a week using digital Vernier calipers and maximum tumor diameter + perpendicular tumor length were digitally recorded into the Study Director software (v 3.0/4.0 StudyLog). Tumor volume was calculated automatically (tumor volume (mm^3) = 0.5236 x [larger diameter (mm) x smaller diameter (mm)^2]). Mice were randomized to treatment once their tumor volume reach 180–300 mm^3 and tumor measurements were performed twice a week up to 120 days or when the tumor volume reaches 700 mm^3.
(§2) Time to progressive disease (PD): Defined as the time (in days) from beginning of treatment to an increase in average tumor volume of >20% from the nadir (taken as the smallest average tumor volume recorded since treatment started or 200 mm^3 if nadir was <200 mm^3 as lesions smaller than this are difficult to measure with accuracy). Median time to harvest (TTH): Defined as the time (in days) from the beginning of treatment to day of harvest at 700 mm^3 and the median TTH was calculated and plotted using Kaplan-Meier curves. Based on ref. [27]. […]

CEM dEpoB300 = assay: Cell growth inhibition assay, CEM dEpoB300; type: cell-based; conditions: Homo sapiens; CEM dEpoB300, leukemia (taxane resistant, β-tubulin mutation); 72 h, Alamar Blue; mean of 3 ± SEM; read-out: IC50 (inhibition of cellular proliferation)
Description: (§3) Cells were plated at a density of between 500 to 5000 cells per well for adherent cell lines depending on doubling time, and 15,000 cells per well for lymphoblastic leukemia cell lines, in a 96-well plate in 200 μl of growth media. Plates were incubated overnight at 37 °C before adding the inhibitors. Inhibitors were serially diluted from the stock solutions in complete medium and added to the cells. Incubation in the presence of inhibitors was continued for […]. Cell viability was assessed by the AlamarBlue (Invitrogen) or CellTiterBlue/Glo (Promega) method according to manufacturer’s instructions. The curve fits and IC50 values were generated in PRISM (GraphPad, San Diego, CA).
Parental human lymphoblastic leukemia cells (CEM) and their drug resistant derivatives (dEpoB30 and dEpoB300) were cultured in the presence of increasing amounts of WEHI-7326, paclitaxel or epothilone B. Cell survival was determined as described in Experimental Procedures. Shown are mean of 3 experiments +/- SEM. Dose response curves were fitted in PRISM using non-linear regression (4 parameter logistic) to calculate IC50 values.

134036 HGSOC PDX = assay: HGSOC PDX model 134036; type: in vivo, NSG mice; conditions: 134036 C5 platinum refractory PDX; 20 mg/kg i.v. biweekly, 6 weeks
Description: as §1, §2

322 T TNBC PDX = assay: TNBC PDX model 322T; type: in vivo, NOD-SCID-IL2Rγc–/– mice
Description: Cohorts of about 30 female mice were seeded with thawed single cell suspensions of early passage human breast tumors (passage 2 or 3). Briefly, 150,000–250,000 cells were resuspended in 10 µl of transplantation buffer (50% fetal calf serum, 10% of a 0.04% trypan blue solution and 40% PBS) and growth-factor-reduced Matrigel [BD] at a ratio of 3:1, and injected into the cleared mammary fat pads of 3- or 4-week-old NOD-SCID-IL2Rγc–/– female mice. Mice were monitored for tumor development three times weekly and tumor size measured using digital Vernier calipers. Tumor volume was estimated by measuring the minimum and maximum tumor diameters using the formula: (minimum diameter)^2 x (maximum diameter)/2. Once tumors arose, mice were randomized into treatment arms. Treatment was initiated when the tumor volume reached 80–120 mm^3. Randomization and tumor measurements were managed using the Study Director software (v 3.0, studylog). Mice were sacrificed at the first measurement where tumor volume exceeded 600 mm^3, or if their health deteriorated for reasons other than disease progression or drug toxicity (censored event).
Mice were treated with either docetaxel (10 mg/kg; i.p.; once), cisplatin (4 mg/kg; i.p.; once) or WEHI-7326 (20 mg/kg; twice a week (Monday and Thursday); i.v.). Vehicle treated mice were administered with the vehicle for WEHI-7326. Docetaxel was resuspended at 2 mg/ml in PBS:Tween-80:ethanol = 90:5:5 (v/v/v). WEHI-7326 was resuspended at 2 mg/ml in saline.

134111 HGSOC PDX = assay: HGSOC post-chemo PDX model 134111; type: in vivo, NSG mice; conditions: 134111 post-taxane, cisplatin-refractory PDX; 20 mg/kg i.v. twice a week, 6 weeks
Description: as §1, §2

PC3 = assay: Cell growth inhibition assay, PC3; type: cell-based; conditions: Homo sapiens, PC-3; PC3, prostate carcinoma; 72 h viability assay, CellTiterGlo; mean of 3 ± SEM; read-out: IC50 (inhibition of cellular proliferation)
Description: as §3

AH406 LUSC PDX = assay: LUSC PDX model AH406; type: in vivo, NOD-SCID-IL2Rγc–/– mice; conditions: WEHI-7326 20 mg/kg i.v. biweekly, docetaxel 10 mg/kg i.p. once
Description: LUSC PDXs were generated as described in[25]. PDXs at passage 4 were defrosted and washed with PBS before counting. 200,000 to 500,000 cells were then injected in a 50:50 PBS:Matrigel mix into the flanks of NOD-SCID-IL2Rγc–/– male mice. Tumors were measured twice weekly with calipers and treatment started when tumors were between 70–120 mm^3. Mice were assigned to treatment groups based on average tumor volume per group. Mice were culled when tumors reached a volume of 600 mm^3.

134056 HGSOC PDX = assay: HGSOC PDX model 134056; type: in vivo, NSG mice; conditions: 134056 platinum-sensitive PDX; 20 mg/kg i.v. biweekly, 6 weeks
Description: as §1, §2

Question: What does the source list for `COc1ccc(CNc2nc(NCc3ccc(CN)cc3)nc(NN3CC(=O)NC3=O)n2)cc1` [WEHI-7326]?
Answer: Tumor response (34931 HGSOC PDX): ineffective; IC50 (CEM dEpoB300): 6.51 ± 0.08 nM; Tumor response (134036 HGSOC PDX): completely unresponsive; Adverse effects in treatment arm (322 T TNBC PDX; 322 T PDX mice, 20 mg/kg i.v. twice a week, n = 10): 1 sick, 1 found dead; Survival time (322 T TNBC PDX; 322 T PDX, docetaxel 10 mg/kg i.p. once, WEHI-7326 20 mg/kg i.v. biweekly): 18 days; Tumor response (134111 HGSOC PDX): ineffective; IC50 (PC3): 48.9 ± 11.1 nM; Median survival (AH406 LUSC PDX): 29 days; Median time to harvest (TTH) (134056 HGSOC PDX): 78 days; Time to progressive disease (PD) (134056 HGSOC PDX): 56 days
